Source: paper PMC12195677, “In Vitro Effect of Ferruginol, Tanshinone, and Carnosol Analogues on the Proliferation of Three Breast Cancer Cell Lines” (Molecules, 2025)
Like-named read-outs stand apart in the source and are kept apart here.

What was measured:
[1] = tested on: several breast cancer cell lines; set-up: method as in PMID 36831660; conditions: cited from earlier work; for therapeutic index range: range over the named compounds and cell lines (Table 1)
SUM149 [2] = conditions: cited from earlier work; for TI (therapeutic index) SUM149: EC50 BJ fibroblasts / EC50 SUM149; for Effectiveness against SUM149 cell line (in words): conclusions, Table 1 values of these compounds ref 13
MDA-MB231 [3] = conditions: cited from earlier work; for TI (therapeutic index) MDA-MB231: EC50 BJ fibroblasts / EC50 MDA-MB231
MCF07 [4] = conditions: cited from earlier work; for TI (therapeutic index) MCF07: EC50 BJ fibroblasts / EC50 MCF07
human BJ fibroblasts = conditions: cited from earlier work
SUM149 [5] = assay: CellTiter-Glo cell viability/proliferation assay, SUM149; format: cell-based, Human; conditions: for TI (therapeutic index) SUM149: EC50 BJ fibroblasts / EC50 SUM149; for IC50: Homo sapiens, SUM149, 72 h incubation, CellTiter-Glo, mean ± SD, read-out: Cytotoxicity IC50, SUM149
Procedure: (§1) The compounds were systematically assessed through multiple biological testing platforms to establish their relative effectiveness and explore potential correlations between chemical structure and biological function. Firstly, their ability to inhibit the proliferation of three specific breast cancer linages (SUM149, MDA-MB231, MCF07) was evaluated in vitro by using the established CellTiter-Glo® [18, 19] cellular proliferation assay.
(§2) Human cell lines were incubated at 37 °C in a 5% CO2 atmosphere and maintained under sterile conditions. Cells were tested for Mycoplasma (Lonza, Alpharetta, GA, USA) using the manufacturer’s conditions prior to experiments. Cell lines were purchased from American Type Culture Collection (ATCC, Manassas, VA, USA), and SUM149 was obtained from Asterand (Detroit, MI, USA) and cultured without antibiotics unless stated. Cells were cultured in Eagle’s Minimum Essential Medium (EMEM), DMEM, or F12 from ATCC supplemented with 10% fetal bovine serum (FBS, Hyclone, Logan, UT, USA) and 1% GlutaMAX. Human BJ fibroblast cells (ATCC, CRL-2522) were supplemented with 10% fetal bovine serum (FBS, Hyclone, Logan, UT, USA) and 1% GlutaMAX. BJ cells were cultured in EMEM media, and breast cancer cells (MDA-MB-231, MCF07) were cultured in DMEM. SUM149 was cultured in Ham’s F12 supplemented with 1% GlutaMAX,1% Pen/Step, 2 μM cortisol, and 1 ug/mL insulin. Cells were grown to 80% confluence densities as recommended by ATCC.
(§3) Cytotoxicity evaluation was performed using the CellTiter-Glo Luminescent Cell Viability Assay kit (G7570, Promega, Madison, WI, USA), according to the manufacturer’s instructions. Briefly, the cell concentrations used were experimentally determined to ensure logarithmic growth during the 72 h duration of the experiment and avoid adverse effects on cell growth by DMSO exposure. To proceed, […] cells/well were seeded in 96-well white flat-bottomed plates (#3610 Corning, Corning, NY, USA) in […]. The plates were incubated at 37 °C in 5% CO2 for 24 h before drugging. Test compounds (10 mM in DMSO) in eight 2-fold serial dilutions were dispensed to assay plates. The final concentration of DMSO was 0.3% (v/v) in each well. The positive controls included staurosporine (10 μM) and/or gambogic acid (10 μM). The plates were incubated for 72 h at 37 °C in 5% CO2, then quenched with CellTiter-Glo® (Promega, Madison, WI, USA, 50 uL/well), centrifuged at 1000 rpm for 1 min, and incubated at RT for 20 min. Luminescence was recorded with a plate reader (CLARIOstar Plus, BMG LabTech, Ortenberg, Germany). The mean luminescence of each experimental treatment group was normalized as a percentage of the mean intensity of untreated controls. EC50 values were calculated from dose-response curve-fitting via non-linear regression using GraphPad Prism 9.0 (GraphPad Software, San Diego, CA, USA). A therapeutic index (TI) between normal and tumor cell lines can be determined (EC50 non-neoplastic cell line BJ)/(EC50 cancer cell line).

MDA-MB231 [6] = assay: CellTiter-Glo cell viability/proliferation assay, MDA-MB231; format: cell-based, Human; conditions: for TI (therapeutic index) MDA-MB231: EC50 BJ fibroblasts / EC50 MDA-MB231; for IC50: Homo sapiens, MDA-MB-231, 72 h incubation, CellTiter-Glo, mean ± SD, read-out: Cytotoxicity IC50, MDA-MB231
Procedure: as §1, §2, §3

MCF07 [7] = assay: CellTiter-Glo cell viability/proliferation assay, MCF07; format: cell-based, Human; conditions: for TI (therapeutic index) MCF07: EC50 BJ fibroblasts / EC50 MCF07; for IC50: Homo sapiens, 72 h incubation, CellTiter-Glo, mean ± SD, read-out: Cytotoxicity IC50, MCF07
Procedure: as §1, §2, §3

[8] = CellTiter-Glo cell viability assay, non-neoplastic BJ fibroblasts; format: cell-based; conditions: BJ fibroblast cells (non-neoplastic, ATCC CRL-2522), non-neoplastic human BJ fibroblasts, mean ± SD, read-out: Cytotoxicity IC50, BJ
Procedure: as §2, §3

[9] = tested on: MDA-MB231 breast cancer cells; assay: Cell morphology by brightfield microscopy; format: cell-based, Human; conditions: 24 h treatment, brightfield 10×; 1 and 6 at 5 μM, 10 at 10 μM
From the text: Brightfield microscopy images of MDA-MB231 breast cancer cells are indicated in Figure 6 to highlight the morphological changes that occur upon treatment with compounds 1, 6, and 10 as representative compounds. […] The precise mechanism of cell death for other compounds remained unclear.
Representative images were collected using 10× objective with a Leica DMi1 Microscope (Leica microsystems, Wetzlar, Germany). MDA-MB231 cells were imaged with a vehicle as the negative control, staurosporine as the positive control (2 μM), or compounds with results shown in representative images for 24 h.

SUM149 cells = assay: Colony formation (clonogenic) assay, SUM149; format: cell-based, Human; conditions: 10 μM
Procedure: Further evaluation of various promising compounds using breast cancer cells included analysis of colony-forming inhibition capabilities and investigations into their specific mechanistic pathways of action. Thus, the anchorage-dependent colony formation assay, also known as the clonogenic assay, was conducted. This method in cancer research evaluates the ability of single cells to grow into colonies when attached to a surface and can measure a cell’s ability to undergo “unlimited” division and form a colony (usually defined as ≥50 cells).
The clonogenic assay offers comprehensive insights into the compound’s overall efficacy and is regarded as the definitive method for assessing post-treatment reproductive cell death (both cytotoxic and cytostatic effects). The extended duration of the experiment simultaneously provides valuable data on the compounds’ stability over time, which are not detected in short-term viability assays. […] In the MDA-MB231 cellular model (Figure 3), the evaluated compounds successfully eliminated the cells’ capacity to establish colonies (for images, see Figures S3 and S4).
MDA-MB-231 (0.8 × 10^6 cells/well) and SUM-149 cells (1.5 × 10^6 cells/well) were plated on a 6-well plate. Two days later, cell media was changed to 5% FBS, and cells were incubated at 37 °C in a 5% CO2 atmosphere for 1 h before the vehicle (0.1% DMSO) or compound (5–10μM) was added. After 72 h of treatment, cells were trypsinized and reseeded at 800 cells/mL (MDA-MB231) and 1200 cells/mL (SUM149) per well in 6-well plates. After 10 days of culture, the media was removed from the wells and washed once with cold PBS. The colonies were stained with 5 mL of 1% Crystal Violet for 30 min. The dishes were fixed by methanol, rinsed with water three times, and air-dried, and the colonies were counted using ImageJ version 1.5.4 (NIH, Bethesda, MD, USA).

[10] = read-out: Cytotoxicity IC50, SUM149, 72 h incubation, CellTiter-Glo, mean ± SD
[11] = read-out: Cytotoxicity IC50, MDA-MB231, 72 h incubation, CellTiter-Glo, mean ± SD
[12] = read-out: Cytotoxicity IC50, MCF07, 72 h incubation, CellTiter-Glo, mean ± SD
[13] = read-out: Cytotoxicity IC50, BJ, non-neoplastic human BJ fibroblasts, 72 h, CellTiter-Glo, mean ± SD

Structure (SMILES)	TI (therapeutic index) SUM149 (SUM149 [2])	TI (therapeutic index) MDA-MB231 (MDA-MB231 [3])	TI (therapeutic index) MCF07 (MCF07 [4])	TI (therapeutic index) SUM149 (SUM149 [5])	IC50 (SUM149 [5]) [µM]	TI (therapeutic index) MDA-MB231 (MDA-MB231 [6])	IC50 (MDA-MB231 [6]) [µM]	TI (therapeutic index) MCF07 (MCF07 [7])	IC50 (MCF07 [7]) [µM]	IC50 at 72 h [8] [µM]	therapeutic index range [1]	IC50 (SUM149 [2]; [10]) [µM]	IC50 (MDA-MB231 [3]; [11]) [µM]	IC50 (MCF07 [4]; [12]) [µM]	IC50 (human BJ fibroblasts; [13]) [µM]	also measured
COC(=O)[C@]1(C)CCC[C@]2(C)c3c(cc(C(C)C)c(O)c3O)CC[C@@H]12 [Compound 13]	≈1	6	≈1	–	–	–	–	–	–	–	–	–	–	–	–	Bioactivity across the tested cell lines (in words) ([1]; conclusions, Table 1 values of this compound ref 13): minimal activity; IC50 (SUM149 [2]): > 50 µM; IC50 (MDA-MB231 [3]): 9.4 ± 0.4 µM; IC50 (MCF07 [4]): > 50 µM; IC50 (human BJ fibroblasts): 57.6 ± 3 µM
CC(C)c1cc2c(cc1O)[C@@]1(C)CCC[C@@](C)(CN3C(=O)c4cccc(F)c4C3=O)[C@@H]1CC2 [Compound 6]	–	–	–	13	4.8 ± 0.2	7	9.4 ± 0.9	12	5.4 ± 0.6	63.5 ± 6.3	–	–	–	–	–	Morphological changes (early apoptosis) [9]: Membrane blebbing
COc1ccc2c(c1)C(=O)N(C[C@]1(C)CCC[C@]3(C)c4cc(O)c(C(C)C)cc4CC[C@@H]13)C2=O [Compound 9, 12-Hydroxy-N,N-(4-methoxyphthaloyl)dehydroabietylamine]	–	–	–	14	4.3 ± 0.2	7	8.2 ± 0.8	5	12 ± 1.2	58.9 ± 5.7	–	–	–	–	–	–
CC(C)c1cc2c(c(O)c1O)[C@@]1(C)CCC[C@@](C)(CN3C(=O)c4ccccc4C3=O)[C@@H]1CC2 [Compound 12]	18	12	7	–	–	–	–	–	–	–	6–43	–	–	–	–	IC50 (SUM149 [2]): 1.8 ± 0.2 µM; IC50 (MDA-MB231 [3]): 2.8 ± 0.2 µM; IC50 (MCF07 [4]): 4.6 ± 0.6 µM; IC50 (human BJ fibroblasts): 32.5 ± 5 µM
CC(C)c1cc2c(cc1O)[C@@]1(C)CCC[C@@](C)(CN3C(=O)c4ccc(F)cc4C3=O)[C@@H]1CC2 [Compound 7]	–	–	–	>12	4.3 ± 0.1	>7	7.6 ± 0.2	>7	7 ± 0.6	> 50	–	–	–	–	–	–
COC(=O)[C@]1(C)CCC[C@]2(C)C3=C(C=C(C(C)C)C(=O)C3=O)CC[C@@H]12 [Compound 11]	43	15	7	–	–	–	–	–	–	–	6–43	1.3 ± 0.6	3.9 ± 0.8	8.3 ± 0.9	56.5 ± 6.1	Colony-forming ability of SUM149 cells (SUM149 cells): notable exceptions; Effectiveness against SUM149 cell line (in words) (SUM149 [2]): notable effectiveness
CC(C)c1cc2c(cc1O)[C@@]1(C)CCC[C@@](C)(CN)[C@@H]1CC2 [Compound 2, 12-hydroxydehydroabietylamine]	17	15	7	–	–	–	–	–	–	–	–	–	–	–	–	IC50 (SUM149 [2]): 4.4 ± 0.3 µM; IC50 (MDA-MB231 [3]): 5.1 ± 0.6 µM; IC50 (MCF07 [4]): 10 ± 1.5 µM; IC50 (human BJ fibroblasts): 75 ± 6.2 µM
CC(C)c1cc2c(cc1O)[C@@]1(C)CCCC(C)(C)[C@@H]1CC2 [Compound 1, ferruginol]	–	>6	>3	–	–	–	–	–	–	–	–	> 50	8.3 ± 1.4	19 ± 1.5	> 50	Colony-forming ability of SUM149 cells (SUM149 cells): notable exceptions; Morphological changes (early apoptosis) [9]: Membrane blebbing
COc1cccc2c1C(=O)N(C[C@]1(C)CCC[C@]3(C)c4cc(O)c(C(C)C)cc4CC[C@@H]13)C2=O [Compound 8, 12-Hydroxy-N,N-(3-methoxyphthaloyl)dehydroabietylamine]	–	–	–	12	5.3 ± 0.1	≈1	54.6 ± 5	6	11 ± 1.4	61.2 ± 5.4	–	–	–	–	–	–
CC(C)C1=CC2=C(C(=O)C1=O)[C@@]1(C)CCC[C@@](C)(CN3C(=O)c4ccccc4C3=O)[C@@H]1CC2 [Compound 10]	24	13	15	–	–	–	–	–	–	–	6–43	1.5 ± 0.4	2.8 ± 0.4	2.3 ± 1.1	35.4 ± 5	Colony-forming ability of SUM149 cells (SUM149 cells): notable exceptions; Morphological changes (early apoptosis) [9]: Membrane blebbing; Effectiveness against SUM149 cell line (in words) (SUM149 [2]): notable effectiveness
CC(C)c1cc2c(cc1O)[C@@]1(C)CCC[C@@](C)(CN3C(=O)c4ccccc4C3=O)[C@@H]1CC2 [Compound 5, 18-(phthalimid-2-yl)ferruginol]	17	9	6	–	–	–	–	–	–	–	6–43	4.4 ± 0.2	8.2 ± 0.5	13 ± 0.6	74.8 ± 5.3	–
